Results from US9279806B2, “Water-soluble AIE luminogens for monitoring and retardation of fibrillation of amyloid proteins” (THE HONG KONG UNIVERSITY OF SCIENCE AND TECHNOLOGY, priority 2005, dated 2016).

Columns and labels:
G-quadruplex of G1 = assay: Isothermal titration calorimetry (ITC); format: binding, human
Method: It is clear that TTAPE is highly affinitive to K^+-containing G-quadruplex but not its Na^+ cousin. Isothermal titration calorimetry (ITC) measurements are performed, in an effort to understand the thermodynamic basis for the binding affinity difference. ITC is a sensitive technique for the studies of bimolecular processes and can provide direct information about binding affinities and associated thermodynamic parameters. A calorimetric titration experiment was performed at 25.00±0.01° C. on a MicroCal VP-ITC apparatus. G1 solutions for the ITC experiments were prepared in all-potassium (K-Tris: 5 mM Tris-HCl and 150 mM KCl) or all-sodium (Na-Tris: 5 mM Tris-HCl and 150 mM NaCl) buffer at pH 7.50, as required. The buffer solution of G1 was heated to 85° C. and cooled slowly to ensure the folding of the DNA into G-quadruplex structure. For a typical titration, a series of 10 μL aliquots of TTAPE solution were injected into the G1/M^+ solution at a 240 s interval. The heat for each injection was determined by the integration of the peak area in the thermogram with respect to time. Blank titration was conducted by injecting TTAPE into the sample cell containing only buffer under the same condition. The interaction heat was corrected by subtracting the blank heat from that for the TTAPE/G1 titration. The kb values were derived by fitting the isotherm curves with Origin 5.0 software.

Solubility = format: physicochemical
[1] = tested on: G1 (ssDNA that mimics human telomeric sequence) / G-quadruplex; assay: DNA probing and quadruplex recognition by FL/CD of TTAPE with G1; format: binding
Method: G1 is a 21-mer ssDNA that mimics human telomeric sequence. When the DNA is added into a solution of TTAPE in a Tris-HCl buffer, the solution starts to luminesce (FIG. 27A). Similar FL “lightup” phenomenon has been observed in the thiazole orange system. The I/I0 ratio of TTAPE at 470 nm increases rapidly in a narrow DNA concentration range and reaches its maximum at [G1]=5 μM (FIG. 27B). While conventional FL dyes suffer from self-quenching problems at high dye concentrations, the FL of TTAPE is continuously intensified with increasing its concentration (FIG. 28 and FIG. 27B), thanks to its unique AIE feature. In the aqueous buffer, the cationic dye spontaneously binds to the anionic DNA via electrostatic attraction, resulting in the formation of a TTAPE/G1 complex. Hydrophobic interaction between TTAPE and G1 may have also played a role in the binding process. These intermolecular forces lock conformations of the TTAPE molecules bound to the G1 strands. Consequently, the intramolecular rotations of TTAPE are restricted, which thus blocks its radiationless relaxation pathways and activates its FL process.
A complex of ssDNA and TTAPE was prepared by mixing 10 μL G 1 (0.1 mM) and 50 μL TTAPE (0.01 mM) in 5 mM Tris-HCl buffer in a 1.5 ml Eppendorf cup. The solution was incubated at 4° C. for 30 min. G-quadruplex formation was induced by adding 10 μl of a 1.0 M KCl solution into the Eppendorf cup. The final concentrations of TTAPE and G1 were kept at 4.5 and 9.0 μM, respectively. For other cationic species, the same amounts of corresponding salts were used. Kinetic experiment was conducted immediately after the injection of the cationic solution, while other spectral measurements were performed after an incubation period of 30 min.
DNA samples of G1, C1 and C2 were obtained from Operon in desalt purity and used without further purification. G1 was chosen as a model ssDNA mimicking the human telomeric repeat sequence d(T2AG3), which is capable of forming intramolecular G-quadruplex. Concentrations of the DNA strands were determined by measuring their absorptivity (E) values at 260 nm in a 100 μL quartz cuvette [ε(×10^5 M^−1 cm^−1): 2.14 (G1), 1.85 (C1), 1.85 (C2)]. Water was purified by a Millipore filtration system. Buffer solution was prepared by titrating 5 mM Tris with HCl until its pH value reached 7.50. All experiments were performed at room temperature unless otherwise specified.

[2] = entry 1: K+ added to TTAPE/G1 mixture, room temperature
[3] = entry 2: G1 added to TTAPE/K+ mixture
[4] = entry 3: TTAPE added to G1/K+ mixture

## CC[N+](CC)(CC)CCOc1ccc(C(=C(c2ccc(OCC[N+](CC)(CC)CC)cc2)c2ccc(OCC[N+](CC)(CC)CC)cc2)c2ccc(OCC[N+](CC)(CC)CC)cc2)cc1.[Br-].[Br-].[Br-].[Br-] [TTAPE, 1,1,2,2-tetrakis[4-(2-triethylammonioethoxy)phenyl]ethene tetrabromide]
G-quadruplex of G1; G1/K+ buffer, 25 °C
  Gibbs energy (ΔG°): -7.3 kcal/mol
G-quadruplex of G1; Na+ titration (Na-Tris)
  Binding constant: too small to be determined accurately
Solubility
  Solubility in water: completely soluble in water
[1]; K+ added to TTAPE/G1
  Red-shift of excitation and emission spectra on quadruplex formation: ~20 nm
[1]; TTAPE 4.5 μM in Tris-HCl buffer
  G1 concentration at which I/I0 at 470 nm reaches its maximum: 5 µM
[1]; [2]
  CD intensity (relative intensity at 295 nm): 1.00
  FL intensity (relative intensity at 492 nm): 1.00
[1]; [3]
  CD intensity (relative intensity at 295 nm): 0.92
  FL intensity (relative intensity at 492 nm): 0.82
[1]; [4]
  CD intensity (relative intensity at 295 nm): 0.88
  FL intensity (relative intensity at 492 nm): 0.70
